Target: T1, Recombinant Human ENPP-2/Autotaxin (Homo sapiens, UniProt Q13822)
T1 construct: purchased R&D systems 5255-EN
Assay: LysoPLD activity measurement (autotaxin enzyme inhibition, choline release, TOOS reagent)
Type: biochemical
Settings: LysoPLD inhibitory activity; substrate 14:0 LysoPC; absorbance at 555 nm
Procedure, shortened: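 Enzyme and compound were preincubated for 30 min before adding 14:0 LysoPC substrate, diluted to 300 μM, for 90 minutes at 37° C. The choline product was quantified colorimetrically with TOOS reagent. Wells without compound held 1% DMSO.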

IC50 [nM]	Compound
10 to 100	CNC(=O)c1ccc(-n2c(=O)n(Cc3cccc(C(=O)O)c3)c3ccc(Cl)cc32)cc1 [Example 22, 3-((5-chloro-3-(4-(methylcarbamoyl)phenyl)-2-oxo-2,3-dihydro-1H-benzo[d]imidazol-1-yl)methyl)benzoic acid]
10 to 100	CCCc1ccc(-n2c(=O)n(C3(c4cccc(C(=O)O)c4)CC3)c3ccc(Cl)cc32)cc1 [Example 31, 3-(1-(5-chloro-2-oxo-3-(4-propylphenyl)-2,3-dihydro-1H-benzo[d]imidazol-1-yl)cyclopropyl)benzoic acid]
100 to 1000	CC1(C)CC=C(c2ccc(-n3c(=O)n(Cc4cccc(C(=O)O)c4F)c4ccc(Cl)cc43)cc2)CC1 [Example 112, 3-((5-chloro-3-(4′,4′-dimethyl-2′,3′,4′,5′-tetrahydro-[1,1′-biphenyl]-4-yl)-2-oxo-2,3-dihydro-1H-benzo[d]imidazol-1-yl)methyl)-2-fluorobenzoic acid]
10 to 100	CN(C)c1ccc(-n2c(=O)n(C(C)(C)c3cccc(C(=O)O)c3)c3ccc(Cl)cc32)cc1 [Example 153, 3-(2-(5-chloro-3-(4-(dimethylamino)phenyl)-2-oxo-2,3-dihydro-1H-benzo[d]imidazol-1-yl)propane-2-yl)benzoic acid]
< 10	O=C(O)c1cccc(C2(n3c(=O)n(-c4ccc(C(=O)N5CCC(F)(F)CC5)cc4)c4cc(Cl)ccc43)CC2)c1F [Example 133, 3-(1-(5-chloro-3-(4-(4,4-difluoropiperidine-1-carbonyl)phenyl)-2-oxo-2,3-dihydro-1H-benzo[d]imidazol-1-yl)cyclopropyl)-2-fluorobenzoic acid]
< 10	O=C(O)c1cccc(C2(n3c(=O)n(-c4ccc(N5CC6(CCOCC6)C5)cc4)c4cc(Cl)ccc43)CC2)c1 [Example 148, 3-(1-(3-(4-(7-oxa-2-azaspiro[3.5]nonane-2-yl)phenyl)-5-chloro-2-oxo-2,3-dihydro-1H-benzo[d]imidazol-1-yl)cyclopropyl)benzoic acid]
< 10	CC(C)(CO)c1ccc(-n2c(=O)n(C3(c4cccc(C(=O)O)c4)CC3)c3ccc(Cl)cc32)cc1 [Example 218, 3-(1-(5-chloro-3-(4-(1-hydroxy-2-methylpropan-2-yl)phenyl)-2-oxo-2,3-dihydro-1H-benzo[d]imidazol-1-yl)cyclopropyl)benzoic acid]
< 10	O=C(O)c1cccc(C2(n3c(=O)n(-c4ccc(-c5nnc(C6CCC(F)(F)CC6)o5)cc4)c4cc(Cl)ccc43)CC2)c1 [Example 138, 3-(1-(5-chloro-3-(4-(5-(4,4-difluorocyclohexyl)-1,3,4-oxadiazol-2-yl)phenyl)-2-oxo-2,3-dihydro-1H-benzo[d]imidazol-1-yl)cyclopropyl)benzoic acid]
100 to 1000	CC(C)C(=O)Nc1ccc(-n2c(=O)n(Cc3cccc(C(=O)O)c3)c3ccc(Cl)cc32)cc1 [Example 11, 3-((5-chloro-3-(4-isobutyramidophenyl)-2-oxo-2,3-dihydro-1H-benzo[d]imidazol-1-yl)methyl)benzoic acid]
10 to 100	O=C(O)c1cccc(Cn2c(=O)n(-c3ccc(C4CCN(C(=O)C5CC5)CC4)cc3)c3c(F)c(Cl)ccc32)c1F [Example 150, 3-((5-chloro-3-(4-(1-(cyclopropanecarbonyl)piperidin-4-yl)phenyl)-4-fluoro-2-oxo-2,3-dihydro-1H-benzo[d]imidazol-1-yl)methyl)-2-fluorobenzoic acid]
100 to 1000	O=C(O)c1cccc(Cn2c(=O)n(-c3cnc(N4CCOCC4)nc3)c3cc(Cl)ccc32)c1 [Example 83, 3-((5-chloro-3-(2-morpholinopyrimidin-5-yl)-2-oxo-2,3-dihydro-1H-benzo[d]imidazol-1-yl)methyl)benzoic acid]
100 to 1000	O=C(O)c1cccc(Cn2c(=O)n(-c3ccc(C(=O)NCC(F)(F)F)cc3)c3cc(Cl)ccc32)c1 [Example 23, 3-((5-chloro-2-oxo-3-(4-((2,2,2-trifluoroethyl)carbamoyl)phenyl)-2,3-dihydro-1H-benzo[d]imidazol-1-yl)methyl)benzoic acid]
< 10	CN(C)C(=O)c1ccc(-n2c(=O)n(Cc3cccc(C(=O)O)c3F)c3ccc(Cl)cc32)cc1 [Example 38, 3-((5-chloro-3-(4-(dimethylcarbamoyl)phenyl)-2-oxo-2,3-dihydro-1H-benzo[d]imidazol-1-yl)methyl)-2-fluorobenzoic acid]
10 to 100	O=C(O)c1cccc(Cn2c(=O)n(-c3ccc(N4CCCC4)cc3)c3cc(Cl)ccc32)c1 [Example 29, 3-((5-chloro-2-oxo-3-(4-(pyrrolidin-1-yl)phenyl)-2,3-dihydro-1H-benzo[d]imidazol-1-yl)methyl)benzoic acid]
< 10	O=C(O)c1cccc(C2(n3c(=O)n(-c4ccc(C5CCOCC5)cc4)c4cc(Cl)cnc43)CC2)c1 [Example 220, 3-(1-(6-chloro-2-oxo-1-(4-(tetrahydro-2H-pyran-4-yl)phenyl)-1,2-dihydro-3H-imidazo[4,5-b]pyridin-3-yl)cyclopropyl)benzoic acid]
100 to 1000	O=C(O)c1cccc(Cn2c(=O)n(-c3ccc(C4=CCCCC4)cc3)c3cc(Cl)ccc32)c1 [Example 109, 3-((5-chloro-2-oxo-3-(2′,3′,4′,5′-tetrahydro-[1,1′-biphenyl]-4-yl)-2,3-dihydro-1H-benzo[d]imidazol-1-yl)methyl)benzoic acid]
< 10	O=C(O)c1cccc(C2(n3c(=O)n(-c4ccc(N5C(=O)OCC56CC6)cc4)c4cc(Cl)ccc43)CC2)c1 [Example 243, 3-(1-(5-chloro-2-oxo-3-(4-(5-oxo-6-oxa-4-azaspiro[2.4]heptan-4-yl)phenyl)-2,3-dihydro-1H-benzo[d]imidazol-1-yl)cyclopropyl)benzoic acid]
< 10	CN(C)C(=O)c1ccc(-n2c(=O)n(C3(c4cc(F)cc(C(=O)O)c4)CC3)c3ncc(Cl)cc32)cc1 [Example 272, 3-(1-(6-chloro-1-(4-(dimethylcarbamoyl)phenyl)-2-oxo-1,2-dihydro-3H-imidazo[4,5-b]pyridin-3-yl)cyclopropyl)-5-fluorobenzoic acid]
< 10	O=C(O)c1cccc(C2(n3c(=O)n(-c4ccc(C5CCOC5)cc4)c4cc(Cl)ccc43)CC2)c1F (stereo not drawn) [Example 250, 3-(1-(5-chloro-2-oxo-3-(4-(tetrahydrofuran-3-yl)phenyl)-2,3-dihydro-1H-benzo[d]imidazol-1-yl)cyclopropyl)-2-fluorobenzoic acid]
10 to 100	CCOc1ccc(-n2c(=O)n(Cc3cccc(C(=O)O)c3)c3ccc(Cl)cc32)cc1 [Example 20, 3-((5-chloro-3-(4-ethoxyphenyl)-2-oxo-2,3-dihydro-1H-benzo[d]imidazol-1-yl)methyl)benzoic acid]
10 to 100	O=C(O)c1cccc(Cn2c(=O)n(-c3ccc(N4CCN(C(=O)C5CC5)CC4)cc3)c3cc(Cl)ccc32)c1 [Example 95, 3-((5-chloro-3-(4-(4-(cyclopropanecarbonyl)piperazin-1-yl)phenyl)-2-oxo-2,3-dihydro-1H-benzo[d]imidazol-1-yl)methyl)benzoic acid]
10 to 100	O=C(O)c1cc(F)cc(C2(n3c(=O)n(-c4ccc(C5CCOCC5)cc4)c4cc(Cl)ccc43)CC2)c1 [Example 190, 3-(1-(5-chloro-2-oxo-3-(4-(tetrahydro-2H-pyran-4-yl)phenyl)-2,3-dihydro-1H-benzo[d]imidazol-1-yl)cyclopropyl)-5-fluorobenzoic]
< 10	CC1(C)COC(=O)N1c1ccc(-n2c(=O)n(C3(c4cccc(C(=O)O)c4)CC3)c3ccc(Cl)cc32)cc1 [Example 242, 3-(1-(5-chloro-3-(4-(4,4-dimethyl-2-oxooxazolidin-3-yl)phenyl)-2-oxo-2,3-dihydro-1H-benzo[d]imidazol-1-yl)cyclopropyl)benzoic acid]
< 10	O=C(O)c1cc(F)cc(C2(n3c(=O)n(-c4ccc(C5CCOC5)cc4)c4cc(Cl)ccc43)CC2)c1 (stereo not drawn) [Example 249, 3-(1-(5-chloro-2-oxo-3-(4-(tetrahydrofuran-3-yl)phenyl)-2,3-dihydro-1H-benzo[d]imidazol-1-yl)cyclopropyl)-5-fluorobenzoic acid]
< 10	O=C(O)c1cccc(C2(n3c(=O)n(-c4ccc(C(=O)N5CC(O)C5)cc4)c4cc(Cl)cnc43)CC2)c1F [Example 232, 3-(1-(6-chloro-1-(4-(3-hydroxyazetidine-1-carbonyl)phenyl)-2-oxo-1,2-dihydro-3H-imidazo[4,5-b]pyridin-3-yl)cyclopropyl)-2-fluorobenzoic acid]
100 to 1000	Cc1ccc(-n2c(=O)n(Cc3cccc(C(=O)O)c3)c3ccc(Cl)cc32)cc1 [Example 8, 3-((5-chloro-2-oxo-3-(p-tolyl)-2,3-dihydro-1H-benzo[d]imidazol-1-yl)methyl)benzoic acid]
100 to 1000	O=C(O)c1cccc(Cn2c(=O)n(-c3ccc(N4CCC(F)(F)C4)cc3)c3c(F)c(Cl)ccc32)c1 [Example 105, 3-((5-chloro-3-(4-(3,3-difluoropyrrolidin-1-yl)phenyl)-4-fluoro-2-oxo-2,3-dihydro-1H-benzo[d]imidazol-1-yl)methyl)benzoic acid]
10 to 100	O=C(O)c1cccc(C2(n3c(=O)n(-c4ccc(C(=O)N5CC6(COC6)C5)cc4)c4cc(Cl)cnc43)CC2)c1F [Example 233, 3-(1-(1-(4-(2-oxa-6-azaspiro[3.3]heptane-6-carbonyl)phenyl)-6-chloro-2-oxo-1,2-dihydro-3H-imidazo[4,5-b]pyridin-3-yl)cyclopropyl)-2-fluorobenzoic acid]
10 to 100	CN(C)c1ccc(-n2c(=O)n(Cc3cccc(C(=O)O)c3)c3ccc(Cl)cc32)cc1 [Example 10, 3-((5-chloro-3-(4-(dimethylamino)phenyl)-2-oxo-2,3-dihydro-1H-benzo[d]imidazol-1-yl)methyl)benzoic acid]
< 10	CC1(C)OCc2cc(-n3c(=O)n(C4(c5cc(F)cc(C(=O)O)c5)CC4)c4ccc(Cl)cc43)ccc21 [Example 252, 3-(1-(5-chloro-3-(1,1-dimethyl-1,3-dihydroisobenzofuran-5-yl)-2-oxo-2,3-dihydro-1H-benzo[d]imidazol-1-yl)cyclopropyl)-5-fluorobenzoic acid]

Reference: US20260265265A1, “NOVEL BENZIMIDAZOLONE DERIVATIVE COMPOUND AS AUTOTAXIN INHIBITOR” (LG CHEM, LTD., priority 2023, published 2026)
